According to patent publication EP3822637A1, “METHOD FOR DETERMINING PARP INHIBITOR RESPONSIVENESS AND IMPROVING PARP INHIBITOR THERAPY” (Universität Zürich, priority 2019, dated 2021):
Entries after “also recorded” stand apart in the source; their conditions may differ. Blank lines part the entries; values can stand above or below the compound they belong to.

Tests used:
[1] = biological target: T1, TRIP12 (Homo sapiens, UniProt Q14669); assay: In vitro ubiquitin ligase activity assay (TRIP12 auto-ubiquitylation, with and without PAR chains); format: biochemical; conditions: absence and presence of PAR chains; Fig. 16a
T1 construct: The full-length TRIP12 (TRIP12-203, transcript ENST 00000389044.8) was cloned into the pAc-GFP1-C1 (Clontech) vector; expressed in transfected cells
Description: HEK293T cells were transfected with plasmids encoding FLAG-TRIP12 WT or the point mutants R869A or C2034A. Cells were lysed in TNE buffer (50 mM Tris-HCI pH 8.0, 150 mM NaCl, 0,1% Igepal CA630, 1 mM EDTA) supplemented with 2 mM MgCl2, cOmplete inhibitor cocktail (Roche), phosphoSTOP (Roche) and 25 U/ml benzonase. One milligram of protein lysates was immunoprecipitated using protein G- sepharose (GE Heltcare) coupled to 1 µl of anti-FLAG antibody for 3 hours at 4°C. After four washes with IP buffer the beads were first equilibrated in TE buffer (50 mM Tris-HCI pH 8.0, 150 mM NaCl) supplemented with cOmplete inhibitor cocktail (Roche), 1 mM PMSF, and then re-suspended in 5 volumes of TE buffer with 0.3 mg/ml FLAG peptide (3x FLAG peptide, Sigma) for 1 hour at 4°C at low rpm. Samples were then centrifuged at 100 x g for two minutes and the supernatant containing the eluted protein was stored at -80°C.
Auto-PARylated PARP1 was bound to histidine beads (ProBond) for 45 minutes at 4°C. The beads were then equilibrated in reaction buffer (25 mM Tris-HCI pH 7.4, 100 mM NaCl) and equally distributed in reaction tubes. […]

[2] = biological target: T1, TRIP12; assay: In vivo ubiquitin ligase activity assay in cells (GFP-TRIP12 and HA-ubiquitin over-expressed, immunoprecipitation); format: cell-based; conditions: GFP-TRIP12 immunoprecipitated and probed for HA-ubiquitin; Fig. 16b
Description: HEK293T or U-2 OS cells transfected with the indicated plasmids and siRNAs were washed twice with cold PBS and directly lysed on ice with RIPA buffer (50 mM Tris- HCI pH 8.0, 150 mM NaCl, 1% Igepal CA630, 0.1% SDS, 0.1% Na-deoxycholic acid), supplemented with 2 mM MgCl2, cOmplete inhibitor cocktail (Roche), phosphoSTOP (Roche), 25 U/ml benzonase, 1 mM phenylmethylsulfonylfluoride (PMSF), and 10 mM N-ethylmaleimide (NEM). Lysates were incubated for 5 minutes at room temperature and then centrifuged at 15'000 x g for 15 minutes. […] Beads were collected by centrifugation, washed four times with RIPA buffer and eluted by boiling in 10x SDS-PAGE sample buffer. Samples were subjected to SDS-PAGE for immunoblotting.

[3] = system: cancer cells; assay: Clonogenic survival assay, Heclin combined with PARPi; format: cell-based; conditions: Heclin combined with PARP inhibitor Olaparib; Fig. 16d
Description: Cells transfected with the indicated siRNAs were seeded at single cell density and exposed to PARPi at the indicated final concentration. All conditions were performed in triplicates. Cells were then incubated for 10 days and the number of colonies with more than 50 cells was counted after staining with crystal violet (0.5% crystal violet in 20% ethanol). GraphPad Prism was used to display clonogenic survival data.

[4] = biological target: Smurf2 (Homo sapiens, UniProt Q9HAU4); conditions: cited from earlier work
[5] = biological target: T2, Nedd4 (Homo sapiens, UniProt P46934); conditions: cited from earlier work
T2 sequence (P46934 1-1319): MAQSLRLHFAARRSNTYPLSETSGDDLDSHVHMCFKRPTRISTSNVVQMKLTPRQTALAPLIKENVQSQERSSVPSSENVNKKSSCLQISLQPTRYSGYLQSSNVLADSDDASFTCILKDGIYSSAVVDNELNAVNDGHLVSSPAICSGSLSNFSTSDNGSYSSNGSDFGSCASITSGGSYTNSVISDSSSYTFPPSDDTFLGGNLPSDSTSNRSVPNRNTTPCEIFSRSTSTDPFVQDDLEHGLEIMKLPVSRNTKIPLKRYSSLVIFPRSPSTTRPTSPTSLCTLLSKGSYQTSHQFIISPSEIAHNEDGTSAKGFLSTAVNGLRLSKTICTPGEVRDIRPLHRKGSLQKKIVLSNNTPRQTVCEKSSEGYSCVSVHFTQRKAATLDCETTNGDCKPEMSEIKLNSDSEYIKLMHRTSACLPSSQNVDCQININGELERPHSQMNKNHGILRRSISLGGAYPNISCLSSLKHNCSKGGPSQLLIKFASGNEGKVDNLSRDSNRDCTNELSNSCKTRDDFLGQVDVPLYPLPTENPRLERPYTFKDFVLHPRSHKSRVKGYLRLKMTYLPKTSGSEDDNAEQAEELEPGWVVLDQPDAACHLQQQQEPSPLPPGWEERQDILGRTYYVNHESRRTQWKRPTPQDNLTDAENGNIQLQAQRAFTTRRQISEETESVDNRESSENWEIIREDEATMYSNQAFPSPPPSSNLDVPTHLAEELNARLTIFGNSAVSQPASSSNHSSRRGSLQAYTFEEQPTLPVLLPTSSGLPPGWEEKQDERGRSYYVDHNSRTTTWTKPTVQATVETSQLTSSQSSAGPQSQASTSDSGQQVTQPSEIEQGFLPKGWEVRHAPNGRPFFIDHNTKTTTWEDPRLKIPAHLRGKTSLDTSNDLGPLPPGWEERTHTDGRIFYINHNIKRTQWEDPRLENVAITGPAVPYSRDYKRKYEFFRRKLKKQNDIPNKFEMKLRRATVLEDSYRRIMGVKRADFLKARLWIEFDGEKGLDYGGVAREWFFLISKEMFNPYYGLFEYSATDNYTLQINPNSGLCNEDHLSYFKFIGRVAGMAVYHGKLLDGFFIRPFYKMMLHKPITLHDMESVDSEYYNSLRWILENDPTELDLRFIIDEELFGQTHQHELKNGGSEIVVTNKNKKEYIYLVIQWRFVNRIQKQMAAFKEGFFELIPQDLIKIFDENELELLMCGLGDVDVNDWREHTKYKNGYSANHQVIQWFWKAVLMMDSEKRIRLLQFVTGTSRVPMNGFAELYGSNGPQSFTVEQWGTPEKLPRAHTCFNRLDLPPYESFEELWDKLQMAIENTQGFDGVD

[6] = biological target: WWP2 (Homo sapiens, UniProt O00308); conditions: cited from earlier work
[7] = system: PARP1; assay: PARP1 protein levels in treated cells (Western blot / high-content microscopy); conditions: U-2 OS cancer cells; Fig. 16c
Description: Images were analyzed with the inbuilt Olympus ScanR Image Analysis Software Version 3.0.1, a dynamic background correction was applied, and nuclei segmentation was performed using an integrated intensity-based object detection module based on the DAPI signal. All downstream analyses were focused on properly detected nuclei containing a 2C-4C DNA content as measured by total and mean DAPI intensities. Fluorescence intensities were quantified and are depicted as arbitrary units. Color-coded scatter plots of asynchronous cell populations were generated with Spotfire data visualization software (TIBCO) and GraphPad Prism 8.0 was used for depicting data as violin plots. Within one experiment, similar cell numbers were compared for the different conditions. […] Representative scatter plots and quantifications of independent experiments, typically containing several thousand cells each, are shown. […]

[8] = system: BRCA-proficient cancer cells; assay: Clonogenic survival (colony formation) assay with PARPi after siRNA down-regulation of TRIP12; format: cell-based, Human; conditions: siRNA against TRIP12; increasing doses of PARPi; 10 days; rescued by PARP1 co-depletion; Fig. 6a-d, 12a-c
Description: Human U-2 OS cells (ATCC), RPE-1 (ATCC), HEK293T (ATCC), MCF-7 (kindly provided by Ross Chapman), MDA-MB-436 (kindly provided by Michael Hottiger), U-2 OS PARP1 KO cells (kindly provided by Keith Caldecott) and HeLa Kyoto PARP1-LAP cells stably expressing EGFP-tagged PARP1 from its natural promoter (kindly provided by Stoyno S. Stoynov) were grown under standard sterile cell culture conditions (37°C, humidified atmosphere, 5% CO2) in Dulbecco's modified Eagle's medium (DMEM, Thermo Fisher Scientific) containing 10% fetal bovine serum (GIBCO) and 1% of penicillin-streptomycin antibiotics. HCC1143 cells (kindly provided by Mohamed Bentires-Alj) were grown in RPMI-1640 medium (Thermo Fisher Scientific) containing 10% fetal bovine serum (GIBCO) and 1% penicillin- streptomycin antibiotics. SUM149PT (generated by the Ethier laboratory; available at http://www.bioivt.com/ and kindly provided by Alessandro Sartori) were grown in Ham's F-12 medium (Thermo Fisher Scientific) containing 10% fetal bovine serum and 1% of penicillin-streptomycin antibiotics. All cultured cells were routinely tested for mycoplasma contamination and assessed by quantitative image-based cytometry (QIBC) for proper proliferation and absence of abnormal stress signals. […] Transfections with siRNAs were performed for 72h, unless stated otherwise, with Ambion Silencer Select siRNA using Lipofectamine RNAi/MAX (Thermo Fisher Scientific). For individual transfections the siRNAs were used at a final concentration of 25nM. When multiple siRNAs were combined, the final concentration was kept constant in all samples of an experiment. The following Ambion Silencer Select siRNAs were used: TRIP12 (s17808, s17809, s17810), PARP1 (s1098), DTX1 (s4355, s4356), DTX2 (s41519, s223231), DTX4 (s23319, s23321), HUWE1 (s19596, s19597), RNF146 (s37821, s37822). […] Cells were then incubated for 10 days and the number of colonies with more than 50 cells was counted after staining with crystal violet (0.5% crystal violet in 20% ethanol). […]

T1 sequence (Q14669 with tags, fused parts or gaps): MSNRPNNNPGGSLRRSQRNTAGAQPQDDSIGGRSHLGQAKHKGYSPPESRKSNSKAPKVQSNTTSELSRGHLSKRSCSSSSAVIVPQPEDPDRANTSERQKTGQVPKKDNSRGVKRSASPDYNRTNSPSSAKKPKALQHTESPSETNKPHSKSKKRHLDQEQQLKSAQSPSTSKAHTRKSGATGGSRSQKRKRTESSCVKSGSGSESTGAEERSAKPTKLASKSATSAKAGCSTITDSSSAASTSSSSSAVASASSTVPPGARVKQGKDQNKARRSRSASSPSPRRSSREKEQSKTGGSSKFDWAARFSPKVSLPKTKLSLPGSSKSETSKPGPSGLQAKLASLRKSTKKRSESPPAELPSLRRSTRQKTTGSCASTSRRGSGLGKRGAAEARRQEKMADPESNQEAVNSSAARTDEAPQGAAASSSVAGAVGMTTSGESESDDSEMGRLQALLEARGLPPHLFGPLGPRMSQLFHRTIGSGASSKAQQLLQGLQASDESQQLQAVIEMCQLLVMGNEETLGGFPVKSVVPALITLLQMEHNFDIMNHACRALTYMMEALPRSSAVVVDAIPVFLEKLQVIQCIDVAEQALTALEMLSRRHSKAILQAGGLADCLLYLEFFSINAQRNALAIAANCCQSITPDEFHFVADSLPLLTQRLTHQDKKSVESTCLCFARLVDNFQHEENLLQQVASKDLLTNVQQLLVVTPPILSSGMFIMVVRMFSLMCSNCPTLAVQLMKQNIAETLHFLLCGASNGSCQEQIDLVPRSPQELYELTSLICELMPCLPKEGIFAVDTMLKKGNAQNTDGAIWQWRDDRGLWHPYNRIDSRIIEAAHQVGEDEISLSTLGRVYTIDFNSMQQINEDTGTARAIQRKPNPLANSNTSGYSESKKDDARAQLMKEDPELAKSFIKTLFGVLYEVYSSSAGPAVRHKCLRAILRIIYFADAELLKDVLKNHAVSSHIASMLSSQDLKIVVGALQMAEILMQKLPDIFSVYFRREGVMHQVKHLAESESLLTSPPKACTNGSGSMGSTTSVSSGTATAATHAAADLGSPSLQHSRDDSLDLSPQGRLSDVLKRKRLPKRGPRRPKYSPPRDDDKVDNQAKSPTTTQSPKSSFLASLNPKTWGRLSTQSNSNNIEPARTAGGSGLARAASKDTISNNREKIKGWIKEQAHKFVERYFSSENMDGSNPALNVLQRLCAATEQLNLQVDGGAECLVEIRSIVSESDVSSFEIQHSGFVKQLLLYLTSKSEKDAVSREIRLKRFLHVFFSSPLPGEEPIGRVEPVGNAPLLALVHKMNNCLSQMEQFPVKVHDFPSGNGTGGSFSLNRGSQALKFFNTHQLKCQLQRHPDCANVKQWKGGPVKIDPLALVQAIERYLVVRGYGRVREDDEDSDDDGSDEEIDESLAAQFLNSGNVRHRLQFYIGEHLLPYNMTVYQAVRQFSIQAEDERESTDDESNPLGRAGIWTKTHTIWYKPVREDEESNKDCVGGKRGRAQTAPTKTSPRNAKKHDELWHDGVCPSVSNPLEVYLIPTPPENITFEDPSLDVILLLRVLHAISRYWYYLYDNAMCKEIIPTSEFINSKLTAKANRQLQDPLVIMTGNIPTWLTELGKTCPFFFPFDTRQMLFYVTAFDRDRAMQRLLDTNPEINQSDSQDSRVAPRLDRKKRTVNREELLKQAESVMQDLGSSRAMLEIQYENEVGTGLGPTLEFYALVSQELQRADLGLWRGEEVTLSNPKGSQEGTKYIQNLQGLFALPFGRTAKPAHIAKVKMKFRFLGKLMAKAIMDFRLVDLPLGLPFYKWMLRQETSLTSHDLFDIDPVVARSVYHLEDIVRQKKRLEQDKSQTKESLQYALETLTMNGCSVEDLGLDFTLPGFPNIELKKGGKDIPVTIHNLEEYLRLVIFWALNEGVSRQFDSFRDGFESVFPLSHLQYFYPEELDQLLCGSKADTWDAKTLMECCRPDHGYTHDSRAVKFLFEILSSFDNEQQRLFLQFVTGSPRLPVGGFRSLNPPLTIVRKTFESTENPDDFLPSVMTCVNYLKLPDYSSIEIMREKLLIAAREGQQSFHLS
Chain of WWP2 (O00308 whole entry, species assumed): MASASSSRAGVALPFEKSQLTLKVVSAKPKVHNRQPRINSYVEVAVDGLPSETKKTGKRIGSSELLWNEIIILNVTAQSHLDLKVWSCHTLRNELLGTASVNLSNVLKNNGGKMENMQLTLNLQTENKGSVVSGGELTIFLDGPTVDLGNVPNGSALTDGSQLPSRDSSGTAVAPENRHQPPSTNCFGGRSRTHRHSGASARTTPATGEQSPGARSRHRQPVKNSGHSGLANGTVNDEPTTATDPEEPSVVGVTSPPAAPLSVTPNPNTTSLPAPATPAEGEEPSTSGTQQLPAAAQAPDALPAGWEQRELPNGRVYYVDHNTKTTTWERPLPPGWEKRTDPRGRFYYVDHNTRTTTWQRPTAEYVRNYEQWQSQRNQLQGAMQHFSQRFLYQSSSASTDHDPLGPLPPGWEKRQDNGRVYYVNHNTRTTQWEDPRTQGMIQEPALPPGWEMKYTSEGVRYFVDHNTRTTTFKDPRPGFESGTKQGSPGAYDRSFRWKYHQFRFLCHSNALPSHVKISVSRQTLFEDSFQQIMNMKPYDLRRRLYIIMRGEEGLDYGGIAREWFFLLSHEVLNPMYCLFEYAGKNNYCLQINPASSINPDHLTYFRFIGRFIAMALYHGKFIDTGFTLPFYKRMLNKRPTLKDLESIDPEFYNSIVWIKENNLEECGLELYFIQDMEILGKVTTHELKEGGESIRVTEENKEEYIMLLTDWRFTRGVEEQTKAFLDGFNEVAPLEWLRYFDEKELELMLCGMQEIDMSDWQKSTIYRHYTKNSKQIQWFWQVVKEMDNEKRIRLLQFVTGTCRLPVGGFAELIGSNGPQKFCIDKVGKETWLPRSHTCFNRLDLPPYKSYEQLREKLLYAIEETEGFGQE
Chain of Smurf2 (Q9HAU4 whole entry, species assumed): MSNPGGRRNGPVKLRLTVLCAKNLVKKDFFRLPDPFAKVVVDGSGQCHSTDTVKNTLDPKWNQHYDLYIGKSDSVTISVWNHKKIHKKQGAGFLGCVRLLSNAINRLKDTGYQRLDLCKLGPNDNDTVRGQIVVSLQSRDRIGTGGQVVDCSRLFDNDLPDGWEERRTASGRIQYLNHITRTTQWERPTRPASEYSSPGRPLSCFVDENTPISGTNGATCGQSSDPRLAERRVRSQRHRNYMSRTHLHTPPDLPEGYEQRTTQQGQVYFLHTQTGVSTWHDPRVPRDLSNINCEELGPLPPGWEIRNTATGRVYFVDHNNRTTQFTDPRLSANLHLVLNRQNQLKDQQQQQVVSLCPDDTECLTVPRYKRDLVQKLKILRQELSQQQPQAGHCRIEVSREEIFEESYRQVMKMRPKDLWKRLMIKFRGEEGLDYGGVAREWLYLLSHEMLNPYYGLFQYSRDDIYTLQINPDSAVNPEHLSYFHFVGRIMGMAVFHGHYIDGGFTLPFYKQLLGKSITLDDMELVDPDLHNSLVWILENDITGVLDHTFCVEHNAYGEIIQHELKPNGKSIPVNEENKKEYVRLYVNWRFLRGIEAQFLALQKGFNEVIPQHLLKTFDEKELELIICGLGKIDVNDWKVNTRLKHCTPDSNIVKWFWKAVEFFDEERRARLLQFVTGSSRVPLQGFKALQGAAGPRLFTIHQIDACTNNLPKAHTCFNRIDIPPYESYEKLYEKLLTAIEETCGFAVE

TRIP12 activity in vitro [1]: inhibited
TRIP12 activity in vivo [2]: inhibited
Compound: CCc1ccc(C=CC(=O)Nc2ccc(C(C)=O)cc2)o1 [Heclin, N-(4-Acetylphenyl)-3-(5-ethyl-2-furanyl)-2-propenamide]
sensitization of cancer cells to PARPi in clonogenic survival assays [3]: synergizes with the PARP inhibitor Olaparib to kill cancer cells; also recorded: sensitized cancer cells to PARPi
inhibition of ubiquitin ligase Smurf2 [4]: inhibit
inhibition of ubiquitin ligase Nedd4 [5]: inhibit
inhibition of ubiquitin ligase WWP2 [6]: inhibit
PARP1 levels upon Heclin treatment of cells [7]: stabilizes PARP1 in U-2 OS cancer cells in a time- and dose-dependent manner; also recorded: elevated PARP1 levels, in a time- and dose-dependent manner

Compound: O=C(c1cc(Cc2n[nH]c(=O)c3ccccc23)ccc1F)N1CCN(C(=O)C2CC2)CC1 [Olaparib]
clonogenic survival upon PARPi exposure after TRIP12 down-regulation [8]: greatly sensitized

Compound: CNCc1ccc(-c2[nH]c3cc(F)cc4c3c2CCNC4=O)cc1 [Rucaparib]
clonogenic survival upon PARPi exposure after TRIP12 down-regulation [8]: Very similar results

Compound: Cn1ncnc1[C@H]1c2n[nH]c(=O)c3cc(F)cc(c23)N[C@@H]1c1ccc(F)cc1 [Talazoparib]
clonogenic survival upon PARPi exposure after TRIP12 down-regulation [8]: Very similar results
